Source: patent US12391673B2, “LANCL ligands” (NImmune Biopharma, Inc., priority 2020, dated 2025)

What was measured:
[1] = tested on: CD4+ T cells; experiment: Immunological screening in vitro in CD4+ T cells (flow cytometry); format: cell-based, C57BL/6 mice; conditions: 100 nanomolar, 24 h, anti-CD3/CD28, PMA and ionomycin last 6 h, relative to vehicle control
Excerpt: Cell culture. Spleens were excised from C57BL/6 mice. Spleens were crushed between the frosted ends of microscope slides and filtered to provide a cellular suspension. Red blood cells were lysed through hypotonic lysis. Remaining cells were washed and filtered. CD4+ T cells were enriched within the suspension using magnetic sorting based negative selection. Cells were collected and plated within 96 well plates coated with anti-CD3/CD28 and cultured in the presence of BT-108-1, BT-108-2, BT-108-6, BT-108-8, BT-108-12, and BT-108-15 at 0 or 100 nanomolar for 24 h. During the last 6 h of culture, cells were stimulated with phorbol 12-myristate-13-acetate (PMA) and ionomycin.
Immunological analysis. Cells were collected from 96 well plates and stained with a cocktail of antibodies for immunophenotyping by flow cytometry. Culture supernatant was collected and assayed for cytokine concentrations by cytometric bead array. Data was captured on a BD FACS Celesta and analyzed using FACSDiva.

[2] = tested on: NOD model of type 1 diabetes; experiment: NOD mouse model of type 1 diabetes; format: in vivo, Non-obese diabetic (NOD) ShiLt mice; conditions: 10 mg/kg oral gavage daily, vs vehicle
Procedure: NOD model. Non-obese diabetic (NOD) ShiLt mice were used in this study. NOD mice have numerous genetic mutations that enable the spontaneous onset of hyperglycemia and pancreatic pathologies associated with T1D. Mice entered into the experiment at 9 weeks of age and were monitored for a 12-week period. Mice were treated daily with vehicle or 10 mg/kg BT-108-1 by oral gavage. Once weekly blood samples were collected from the tail vein to be tested for glucose concentration by glucometer.

[3] = tested on: Western diet model of nonalcoholic steatohepatitis; experiment: Western diet / CCl4 model of nonalcoholic steatohepatitis; format: in vivo, C57BL/6 mice; conditions: 5 mg/kg oral gavage daily, after 4 weeks of treatment, vs vehicle
Procedure: WD-induced model. C57BL/6 mice were placed on a Western diet consisting of a high-fat diet with addition of 23.1 g/L d-fructose and 18.9 g/L d-glucose to drinking water and weekly intraperitoneal injections of 0.2 μL/g CCl4 to induce steatohepatitis. Matching groups on control diet were included. Mice were treated daily, in a therapeutic manner after 8 weeks of diet. Treatment with BT-108-1 (5 mg/kg) or vehicle control occurred by oral gavage. Dosage was calculated based off mean body weights.
Analysis. Livers were excised and weighed. Sections of livers were excised and stored in buffered formalin for Sirius red staining or snap frozen for assessment of triglycerides. Severity of fibrosis was assessed by scoring of Sirius red stained liver.

[4] = tested on: DSS colitis; experiment: DSS model of colitis; format: in vivo, mice; conditions: 10 mg/kg once daily oral gavage, 7 days of DSS, vs vehicle
Procedure: DSS model. Mice were given DSS in drinking water for seven days to induce disruption of the epithelial layer. At project initiation, mice were 8 weeks of age and began dosing 24 hours after being placed on DSS. BT-108-1 was prepared within a 0.5% methylcellulose (12-15 cP) solution. Dosage used was 10 mg/kg delivered once daily. Dosage was calculated based off mean body weights for each gender. Oral dosage was delivered by orogastric gavage of dosage in 0.2 mL volume.
Flow Cytometry. Colons were collected into RPMI/FBS buffer containing collagenase (300 U/mL) and DNase (50 U/mL) for digestion. Tissues were digested for 60 minutes under stirring at 37° C. Resultant cellular suspensions were filtered through 100 μm strainers, centrifuged (300× g, 8 min), and washed in fresh RPMI. Following filtration of the resulting single cell suspensions, immune cells were purified by Percoll gradient of cell-containing 40% Percoll overlayed onto 70% Percoll solution. After centrifugation, interphase was collected and washed to obtain enriched colonic lamina propria cell fractions. Cells were labeled with mixtures of extracellular (CD45, CD3, CD4, CD8, CD19, NK1.1, F4/80, CD11b, Gr1) antibodies in a sequential live staining in 96-well plates. Data was acquired using a FACS Celesta flow cytometer with FACSDiva software.
Histopathology. Colonic tissues were fixed in 10% formalin, paraffin embedded, and H&E stained. Sections were examined using an Olympus microscope. Histological score was assessed through a composite scoring system of leukocytic infiltration, epithelial erosion, and mucosal thickness.

[5] = tested on: collagen induced arthritis; experiment: Collagen induced model of arthritis; format: in vivo, C57Bl/6 mice; conditions: 5 mg/kg oral daily for four weeks, vs vehicle
Procedure: Models. Six-week-old C57Bl/6 mice were immunized with 200 μg of chicken collagen emulsified in complete Freund's adjuvant by intradermal injections at the base of the tail. Mice were treated with 5 mg/kg of BT-108-1 or vehicle, daily for four weeks.
Immunological analysis. Spleens were excised from mice. Tissues were crushed and filtered to provide a cellular suspension. Red blood cells were lysed. Cells were labeled with mixtures of extracellular (CD45, CD3, CD4, CD8, B220, CD19, CD138, CD21, CD24, CD1d, CD11b, CD86, CD80) and intracellular (BCL6, IL21, IL10, TNF) antibodies in a sequential live staining in 96-well plates in preparation for flow cytometry. Data was captured on a BD FACS Celesta and analyzed using FACSDiva.

[6] = tested on: imiquimod-induced psoriasis; experiment: Imiquimod induced model of psoriasis; format: in vivo, C57BL/6 mice; conditions: 10 mg/kg oral gavage daily, one week, vs vehicle
Procedure: IMQ-induced model. C57BL/6 mice were anesthetized, shaved, and briefly exposed to depilatory cream on the surface of the back. Mice were given three days to recover from the procedure prior to entry to the study. After 3 days, mice were challenged with approximately 60 mg of […] imiquimod cream daily by spreading cream over the shaved area. Mice were scored daily for erythema, scaling and skin thickness. Treatment with BT-108-1 (10 mg/kg) or vehicle control occurred by oral gavage. Dosage was calculated based off mean body weights.
Analysis. Spleens were excised and crushed by microscope slides. Red blood cells were hypotonically lysed from the resultant suspension. Samples were filtered, washed and centrifuged prior to staining. Th1 (Tbet+ IFNγ+), Th17 (RORγT+ IL17+), Treg (CD25+ FOXP3+ IL10+) and Tfh (BCL6+ IL21+) were quantified from CD3+ CD4+ T cells by flow cytometry.

SMILES | IFNγ production / IFNγ+ CD4+ T cells [1] | TNFα production / TNF+ CD4+ T cells [1] | proportion of mice that developed hyperglycemia ([2]; by the end of the study) | fasting blood glucose levels ([2]; throughout the 12-week treatment period) | body weight normalized liver weights [3] | fibrotic scoring (Sirius red stained liver) [3] | liver triglycerides [3] | Th17 cells (CD4+ IL17+) in the colonic lamina propria [4] | histopathology score (colon) [4] | neutrophils in the colonic lamina propria [4] | proportion of IL-17+ CD4+ T cells in the spleens [5] | proportion of TNF+ immune cells in the spleens [5] | Th17 cells (CD4+ IL17+) in the spleen [6] | severity of disease (composite scoring of skin) [6]
COc1cccc(C(O)(C(=O)Nc2cncc(-c3cnnc4ccccc34)c2)c2ncc[nH]2)c1 (stereo not drawn) [BT-108-12, N-(5-(cinnolin-4-yl)pyridin-3-yl)-2-hydroxy-2-(1H-imidazol-2-yl)-2-(3-methoxyphenyl)acetamide] | significant reduction | significant reduction | – | – | – | – | – | – | – | – | – | – | – | –
O=C(Nc1cncc(-c2cnnc3ccc(C(F)(F)F)cc23)c1)C(O)(c1ccccc1)c1ncc[nH]1 (stereo not drawn) [BT-108-15, N-(5-(6-trifluoromethylcinnolin-4-yl)pyridin-3-yl)-2-hydroxy-2-(1H-imidazol-2-yl)-2-phenylacetamide] | significant reduction | significant reduction | – | – | – | – | – | – | – | – | – | – | – | –
O=C(Nc1cncc(-c2cnnc3ccccc23)c1)C(O)(c1ccccc1)c1ncc[nH]1 (stereo not drawn) [BT-108-1, N-(5-(cinnolin-4-yl)pyridin-3-yl)-2-hydroxy-2-(1H-imidazol-2-yl)-2-phenylacetamide] | significant reduction | significant reduction | lower proportion | lower | reduced | reduced | reduced | decreased | decreased | decreased | significantly reduced | significantly reduced | reduced | reduced
